According to PMC9563500, “Effect of Coffee on the Bioavailability of Sterols” (Foods, 2022):
Where two headings read alike, the source gives them in different places.

Columns and labels:
[1] = Absorptive (apical to basolateral) DHE permeability assay through Caco-2 monolayers; assay type: in vitro ADME, human; details: human, Caco-2, pH 7.4, GCA 10 mM, absence of coffee, 6 h, read-out: DHE apparent permeability coefficient (Papp)
Procedure: (§1) For transport experiments, the Caco-2 monolayers were prepared by seeding the cells at a density of 2.6 × 10^5 cells/cm^2 on 12-well polycarbonate Transwell^TM plates, following protocols previously defined for this assay. The cells were cultured until monolayer differentiation, for a total of 24 days, with culture medium being renewed every two days. On the day of the experiment, the culture medium was removed and replaced by HBSS medium pre-warmed at 37 °C (0.5 mL in the apical and 1.5 mL in the basolateral sides). The cell monolayers were placed in an incubator at 37 °C with a plate orbital shaker (IKA-Schüttler MTS4) at 50 rpm for 8 min. After two washing steps, the transepithelial electrical resistance (TEER) values were measured using a Millicell® ERS-2 voltmeter (Merck). The net TEER values (Ω cm^2) were obtained by subtracting the cell-free filter resistance and multiplying by filter area. All cell monolayers achieved TEER values exceeding 700 Ω cm^2 and were considered adequate for transport experiments.
(§2) In assessing the influence of coffees samples on DHE absorption by intestinal epithelia, the transport was studied in the absorptive way; that is, in the apical (mimicking the intestinal lumen) to the basolateral (mimicking the bloodstream) direction. The solutions of DHE to be applied in the apical side were prepared as follows: first, the lyophilized coffee extracts (16-fold diluted) were dissolved with GCA (10 mM) solution in HBSS. Then, the mixtures were allowed to equilibrated overnight in a 37 °C in a water bath with shaking at 100 rpm. On the day of the experiment, DHE was added to the coffee/GCA mixture or to GCA only (Control) as an aliquot from a DMSO stock of 10 mM DHE. Addition was performed under vigorous vortex mixing to facilitate DHE interaction with the GCA micelles and prevent its precipitation. The final DHE concentration ranged from 10 to 100 μM, corresponding to ≤1% (v/v) DMSO. To allow evaluation of the cell monolayer integrity in each permeability assay, the paracellular marker Lucifer Yellow (LY) was also added to the final mixtures at a concentration of 20 μM. The solutions were maintained at 37 °C until application in the permeability assay, and where optically clear.
(§3) It was therefore necessary to guarantee that the composition of the acceptor compartment in the permeability assay has an adequate ability to solubilize the sterol and allow its quantification. To approach the in vivo conditions in absorptive cholesterol transport, the acceptor compartment contained serum albumin at 100 µM, which corresponds to the concentration usually found in interstitial tissues. Serum albumin binds the cholesterol analog DHE with low to moderate affinity, KB = 5 × 10^4 [37], and at the concentration used DHE solubility is increased by at least an order of magnitude. To decrease the adsorption of DHE to the plate well and to the basolateral membrane, the transport media added to the basolateral side contained additionally 1% (v/v) DMSO. The presence of BSA and DMSO lead to improved sink conditions and higher DHE recoveries. The solutions from the acceptor compartments in the permeability assay where lyophilized directly in the wells of the permeability assay. A small amount of water was then added to facilitate detachment from the plate and solubilize salts and BSA. Ice-cold methanol was then added to dissolve DHE and precipitate the serum albumin. The DHE recovery efficiency when following this procedure was at least 90% (for details see Table S3 of the Supplementary Materials).
(§4) To start the absorptive transport experiments, the HBSS on the apical side was removed and replaced with 450 μL of the test solution (emulsified DHE + LY, emulsified DHE + coffee + LY or LY solutions). After addition of the test solution, 50 μL was collected (corresponding to a time delay of about 2 min) and the inserts were moved to a 12-well plate containing 1.2 mL of the basolateral transport medium. […]

Caco-2 monolayers [2] = test: as above; assay type: in vitro ADME, human
Procedure: as §1, §2, §3, §4

[3] = Solubility of DHE in GCA micelles (DHE fluorescence intensity); assay type: physicochemical; details: GCA 10 mM; Figure S6
Procedure: S5 – Solubility of DHE in GCA micelles
The solubility of DHE in the GCA micelles at the concentration of GCA used in the
permeability assays (10 mM) was characterized from variations in DHE fluoresc ence in-
tensity. The c once ntrati on of DHE was varied from 1 to 70 μM, with DHE bei ng ad ded to
the GCA solution by squirti ng a small v olume of a DHE solution i n DMSO (% DMSO < 1
%). The solutions obtai ned were optically clear and stable. However, the flu oresce nce in-
tensity measured in a right-angle geometry was not linearly dependent on the intensity
of light absorbed, Figure S6. This behaviour is in part due to geometr ical constraints due
to the right-angle detection, with a significant fluoresce nce being emitted but not detected.
present as small aggregates.
Figure S6. Dependence of DHE fluorescence intensity ex/em = 324/372 nm on the intensity of light
absorbed by DHE, when added to aqueous solutions containing 10 mM GCA. The hollow symbols
correspond to DHE concentrations equal to 1, 5 and 10 μM, and the filled symbols correspond to
DHE at 25, 50 and 70 μM. The line represents the best fit for the hollow symbols. […]

[4] = design: method as in PMID 4027244; details: aqueous media; cited from earlier work
[5] = design: method as in PMID 17766353; details: cited from earlier work
[6] = MTT cell viability assay (bile salts and coffee extracts); assay type: cell-based; details: human, Caco-2 cells, pH 7.4; for viability at 2 h: Figure S4 (incubation 2 h)
Procedure: The influence of bile salts and coffee extracts on the Caco-2 cells viability was assessed with the MTT assay for determination of mitochondrial activity in active cells. Briefly, the cells were seeded in 96-well plates at a density of 1 × 10^4 cells/well in 200 μL of medium. Cells were then maintained in culture until confluence, for 96 h with medium renewal after 3 days. Solutions of individual bile salts GCDCA, GDCA, GCA and the combination of all three were prepared in the transport buffer HBSS (containing 25 mM HEPES, 0.35 g/L sodium bicarbonate, pH 7.4) at several concentrations above their critical micellar concentration (CMC). Two-fold serial dilutions of individual coffee extracts or mixtures with the bile salts were prepared by diluting the lyophilized extracts in HBSS or HBSS plus bile salts. The following controls were also included: 20% (v/v) of dimethyl sulfoxide (DMSO) in HBSS (positive control) and only HBSS (negative control). The cells were incubated for 6 h with test samples or controls (200 μL). Then, the cells were washed with PBS and incubated with 150 μL of MTT diluted in medium (0.5 mg/mL) for 4 h at 37 °C. Finally, the medium was discarded, and the formazan crystals produced by active cells were solubilized with dimethyl sulfoxide (150 μL) for 15 min under continuous stirring. The absorbances were measured at 570 nm in a Synergy HT Microplate Reader (BioTek Instruments, Inc., Winooski, VT, USA). All conditions were performed in triplicate. Results are expressed as a percentage of cell viability relative to the negative control.

[7] = 50 mM bile salt concentration; cited from earlier work
[8] = design: method as in PMID 27079626, PMID 22569559; details: cited from earlier work
Caco-2 monolayers [9] = test: Lucifer Yellow paracellular permeability through Caco-2 monolayers (cell monolayer integrity); assay type: in vitro ADME, human
Procedure: as §1, §2
To start the absorptive transport experiments, the HBSS on the apical side was removed and replaced with 450 μL of the test solution (emulsified DHE + LY, emulsified DHE + coffee + LY or LY solutions). After addition of the test solution, 50 μL was collected (corresponding to a time delay of about 2 min) and the inserts were moved to a 12-well plate containing 1.2 mL of the basolateral transport medium. The plate was kept at 37 °C under stirring at 50 rpm for a total period of 6 h, with the assays being performed with either a single point sampling or three-points with 2 h sampling intervals. During the three-point sampling assay, 25 μL of the apical compartment was withdrawn at 2 and 4 h and replaced with fresh HBSS. At each time point indicated, the insert was also moved to another 12-well plate containing fresh basolateral medium (transfer sampling). At the end of the experiment (t6h), the inserts were transferred into empty wells and 50 μL were collected from the apical compartment and the remaining solution was decanted and stored. The 12-well plates with the samples of the basolateral compartments were frozen (−18 °C) and lyophilized. The same procedure was also applied to the aliquots of the apical side. All samples were then stored in a humidity-controlled environment until analysis.
The paracellular permeability of each cell monolayer was assessed by the quantification of LY transport from the apical and basolateral sides. For the samples from the apical side, aliquots of 50 μL were withdrawn at the beginning and end of the permeation experiment. The samples were diluted 30-fold and 100 µL were transferred to a 96-wells plate with clear bottom and black sides (Thermo Scientific Nunc). […]

[10] = average over Table 2 samples (DHE 10, 50 and 100 µM)
[11] = multi-time point assay, LY 20 µM alone or with DHE 10 µM emulsified by GCA 10 mM, without or with coffee extract (16-fold diluted), n = 2

CC(C)[C@@H](C)C=C[C@@H](C)[C@H]1CC[C@H]2C3=CC=C4C[C@@H](O)CC[C@]4(C)C3=CC[C@]12C [DHE, ergosta-5,7,9(11),22-tetraen-3β-ol]
Papp at 6 h, 50 µM ([1]; 50 µM DHE): 0.0017 ×10⁻⁶ cm/s | Papp at 6 h, 100 µM ([1]; 100 µM DHE): 0.026 ×10⁻⁶ cm/s | DHE in the acceptor (basolateral) compartment (Caco-2 monolayers [2]; DHE 10 µM apical, transfer sampling at 2, 4 and 6 h, detection limit 1.6 pmol): not detected | fraction of DHE that disappears from the apical transport media immediately after addition to the cell monolayers (Caco-2 monolayers [2]; DHE 10 µM, GCA 10 mM, about 2 min, control (no coffee) or with coffee brew diluted 16 times): 18.5 ± 3.9% | additional decrease of DHE in suspension in the apical compartment (Caco-2 monolayers [2]; DHE 10 µM, GCA 10 mM, at 4 and 6 h incubation): about 2% | amount of DHE extracted from the cells (Caco-2 monolayers [2]; end of permeability assay (6 h), DHE 10 µM, GCA 10 mM, control or with coffee brew): 16.3 ± 4.7% | DHE emulsified by GCA [3]: up to 10 µM | estimated critical aggregation concentration [4]: 25 nM | characteristic rate constant for desorption from membranes ([5]; liquid disordered phase): 0.001 s⁻¹ | characteristic rate constant for desorption from membranes ([5]; liquid ordered phase): 6.9e-05 s⁻¹

C[C@H](CCC(=O)NCC(=O)O)[C@H]1CC[C@H]2[C@@H]3[C@H](O)C[C@@H]4C[C@H](O)CC[C@]4(C)[C@H]3C[C@H](O)[C@]12C [GCA, glycocholic acid]
viability at 6 h, 15 mM ([6]; GCA 15 mM, 6 h exposure, relative to HBSS control): 80% | viability at 2 h ([6]; GCA in HBSS at concentrations ≤12.5 mM): > 90% | capacity to emulsify cholesterol [7]: 1.0 mM | critical micelle concentration (CMC) [8]: 6.5 mM

CC(CCC(=O)NCC(=O)O)C1CCC2C3C(O)CC4CC(O)CCC4(C)C3CCC12C (stereo not drawn) [GCDCA, glycochenodeoxycholic acid]
capacity to emulsify cholesterol [7]: 1.3 mM | critical micelle concentration (CMC) [8]: 1.6 mM

CC(CCC(=O)NCC(=O)O)C1CCC2C3CCC4CC(O)CCC4(C)C3CC(O)C12C (stereo not drawn) [GDCA, glycodeoxycholic acid]
viability at 2 h ([6]; GDCA in HBSS, all tested concentrations (1.56–50 mM)): < 10% | capacity to emulsify cholesterol [7]: up to 3 mM | critical micelle concentration (CMC) [8]: 1.7 mM

Lucifer yellow CH di-potassium salt [LY]
Papp of LY, average value (Caco-2 monolayers [9]; [10]): 0.13 ×10⁻⁶ cm/s | amount of LY transported over the 6 h incubation, average value (Caco-2 monolayers [9]; [10]): 0.8% | Papp of LY (×10^−6) (Caco-2 monolayers [9]; multi-time point assay, last time interval of 2 h, LY alone or with DHE 10 µM/GCA 10 mM, without or with coffee extract, n = 2): 0.64 ×10^−6 cm/s | % Transport of LY 0–2 h (Caco-2 monolayers [9]; [11]): 1.6% | % Transport of LY 2–4 h (Caco-2 monolayers [9]; [11]): 0.9% | % Transport of LY 4–6 h (Caco-2 monolayers [9]; [11]): 1.3% | % Transport of LY 6 h (Caco-2 monolayers [9]; single time point 6 h, LY only): 1.6% | Papp of LY (×10^−6) (Caco-2 monolayers [9]; single time point 6 h, LY only): 0.27 ×10^−6 cm/s
